Read-outs that look alike come from different tables or passages of the source.
Biological target: PRMT5/MEP50 complex (Homo sapiens (Human), UniProt O14744)
Assay: PRMT5:MEP50 FlashPlate Assay (histone H4 peptide substrate, plus and minus MTA)
Assay type: biochemical
Method: The PRMT5 inhibitory activity of compounds of the present invention was determined using either a PRMT5:MEP50 FlashPlate Assay (Reaction Biology Corporation) or a PRMT5:MEP50 HotSpot Assay (Reaction Biology Corporation).
1. PRMT5:MEP50 FlashPlate Assay

[1] = IC50 + 2 μM MTA (nM), in the presence of 2 μM MTA
[2] = in the absence of MTA, read-out: IC50

Chain of PRMT5/MEP50 complex (O14744 2-637): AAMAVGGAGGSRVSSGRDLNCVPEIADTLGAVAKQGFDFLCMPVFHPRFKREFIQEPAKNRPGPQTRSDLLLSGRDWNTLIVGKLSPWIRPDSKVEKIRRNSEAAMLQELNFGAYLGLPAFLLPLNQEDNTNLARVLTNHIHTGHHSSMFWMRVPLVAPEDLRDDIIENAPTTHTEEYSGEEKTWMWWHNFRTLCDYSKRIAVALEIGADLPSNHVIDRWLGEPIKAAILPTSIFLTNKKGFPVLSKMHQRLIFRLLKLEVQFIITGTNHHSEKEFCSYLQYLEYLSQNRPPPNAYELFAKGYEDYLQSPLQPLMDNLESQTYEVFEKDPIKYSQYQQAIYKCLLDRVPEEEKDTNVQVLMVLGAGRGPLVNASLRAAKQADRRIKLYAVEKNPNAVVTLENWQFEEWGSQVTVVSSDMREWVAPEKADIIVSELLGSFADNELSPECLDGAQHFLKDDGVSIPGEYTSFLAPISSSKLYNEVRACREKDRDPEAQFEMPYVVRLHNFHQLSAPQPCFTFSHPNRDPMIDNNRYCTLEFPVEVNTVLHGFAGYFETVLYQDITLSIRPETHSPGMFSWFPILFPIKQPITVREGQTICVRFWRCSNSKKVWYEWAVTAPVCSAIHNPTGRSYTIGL
Chain of PRMT5/MEP50 complex (Q9BQA1 2-342 partner): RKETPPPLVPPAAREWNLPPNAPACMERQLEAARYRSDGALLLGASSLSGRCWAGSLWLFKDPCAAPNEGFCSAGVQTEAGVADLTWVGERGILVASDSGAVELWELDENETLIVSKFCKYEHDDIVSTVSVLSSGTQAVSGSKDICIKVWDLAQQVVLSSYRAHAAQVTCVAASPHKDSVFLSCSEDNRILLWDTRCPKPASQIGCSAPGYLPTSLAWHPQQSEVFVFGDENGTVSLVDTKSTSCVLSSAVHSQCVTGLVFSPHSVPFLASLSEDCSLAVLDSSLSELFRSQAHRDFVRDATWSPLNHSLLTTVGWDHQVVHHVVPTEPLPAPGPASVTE

| Structure (SMILES) | IC50 [1] | IC50 [2] |
| --- | --- | --- |
| N#Cc1cccc(Oc2cncc(-c3ccc4c(=O)[nH]nc(CN)c4c3)c2)c1 [Example 4-69, 3-((5-(4-(aminomethyl)-1-oxo-1,2-dihydrophthalazin-6-yl)pyridin-3-yl)oxy)benzonitrile] | 10 nM | 624 nM |
| NCc1n[nH]c(=O)c2ccc(-c3cncc(Oc4ccccc4F)c3)cc12 [Example 4-70, 4-(aminomethyl)-6-(5-(2-fluorophenoxy)pyridin-3-yl)phthalazin-1(2H)-one] | 10 nM | 221 nM |
| Cc1ccccc1Oc1cncc(-c2ccc3c(=O)[nH]nc(CN)c3c2)c1 [Example 4-72, 4-(aminomethyl)-6-(5-(o-tolyloxy)pyridin-3-yl)phthalazin-1(2H)-one] | 3 nM | 73 nM |
| Cc1ccc(Oc2cncc(-c3ccc4c(=O)[nH]nc(CN)c4c3)c2)cc1Cl [Example 4-74, 4-(aminomethyl)-6-(5-(3-chloro-4-methylphenoxy)pyridin-3-yl)phthalazin-1(2H)-one] | 1.1 nM | 76 nM |
| Cc1c(Cl)cccc1Oc1cncc(-c2ccc3c(=O)[nH]nc(CN)c3c2)c1 [Example 4-75, 4-(aminomethyl)-6-(5-(3-chloro-2-methylphenoxy)pyridin-3-yl)phthalazin-1(2H)-one] | 0.7 nM | 33 nM |
| Cc1ccc(Oc2cncc(-c3ccc4c(=O)[nH]nc(CN)c4c3)c2)c(C)c1Cl [Example 4-76, 4-(aminomethyl)-6-(5-(3-chloro-2,4-dimethylphenoxy)pyridin-3-yl)phthalazin-1(2H)-one] | 1.3 nM | 31 nM |
| COc1ccc(Oc2cncc(-c3ccc4c(=O)[nH]nc(CN)c4c3)c2)cc1 [Example 4-77, 4-(aminomethyl)-6-(5-(4-methoxyphenoxy)pyridin-3-yl)phthalazin-1(2H)-one] | 1.1 nM | 96 nM |
| COc1ccccc1Oc1cncc(-c2ccc3c(=O)[nH]nc(CN)c3c2)c1 [Example 4-78, 4-(aminomethyl)-6-(5-(2-methoxyphenoxy)pyridin-3-yl)phthalazin-1(2H)-one] | 0.5 nM | 66 nM |
| NCc1n[nH]c(=O)c2ccc(-c3cnn4c3CN(Cc3ccccc3)CC4)cc12 [Example 4-79, 4-(aminomethyl)-6-(5-benzyl-4,5,6,7-tetrahydropyrazolo[1,5-a]pyrazin-3-yl)phthalazin-1(2H)-one] | 27 nM | 930 nM |
| CCN1CCn2ncc(-c3ccc4c(=O)[nH]nc(CN)c4c3)c2C1 [Example 4-80, 4-(aminomethyl)-6-(5-ethyl-4,5,6,7-tetrahydropyrazolo[1,5-a]pyrazin-3-yl)phthalazin-1(2H)-one] | 58 nM | 1570 nM |
| CC(C)N1CCn2ncc(-c3ccc4c(=O)[nH]nc(CN)c4c3)c2C1 [Example 4-81, 4-(aminomethyl)-6-(5-isopropyl-4,5,6,7-tetrahydropyrazolo[1,5-a]pyrazin-3-yl)phthalazin-1(2H)-one] | 18 nM | 826 nM |
| NCc1n[nH]c(=O)c2ccc(-c3cnn4c3CN(C3CC3)CC4)cc12 [Example 4-82, 4-(aminomethyl)-6-(5-cyclopropyl-4,5,6,7 tetrahydropyrazolo[1,5-a]pyrazin-3-yl)phthalazin-1(2H)-one] | 28 nM | 1340 nM |
| CC(=O)N1CCn2ncc(-c3ccc4c(=O)[nH]nc(CN)c4c3)c2C1 [Example 4-84, 6-(5-acetyl-4,5,6,7-tetrahydropyrazolo[1,5-a]pyrazin-3-yl)-4-(aminomethyl)phthalazin-1(2H)-one] | 93 nM | 4040 nM |
| NCc1n[nH]c(=O)c2ccc(-c3cnn4c3CN(C(=O)C3CC3)CC4)cc12 [Example 4-85, 4-(aminomethyl)-6-(5-(cyclopropanecarbonyl)-4,5,6,7-tetrahydropyrazolo[1,5-a]pyrazin-3-yl)phthalazin-1(2H)-one] | 29 nM | 1910 nM |
| NCc1n[nH]c(=O)c2ccc(-c3cnn4c3CN(C(=O)C3CCC3)CC4)cc12 [Example 4-86, 4-(aminomethyl)-6-(5-(cyclobutanecarbonyl)-4,5,6,7-tetrahydropyrazolo[1,5-a]pyrazin-3-yl)phthalazin-1(2H)-one] | 11 nM | 731 nM |
| NCc1n[nH]c(=O)c2ccc(-c3cnn4c3CN(C(=O)C3CCCC3)CC4)cc12 [Example 4-87, 4-(aminomethyl)-6-(5-(cyclopentanecarbonyl)-4,5,6,7-tetrahydropyrazolo[1,5-a]pyrazin-3-yl)phthalazin-1(2H)-one] | 22 nM | 1590 nM |
| NCc1n[nH]c(=O)c2ccc(-c3cnn4c3CN(C(=O)C3CCCCC3)CC4)cc12 [Example 4-88, 4-(aminomethyl)-6-(5-(cyclohexanecarbonyl)-4,5,6,7-tetrahydropyrazolo[1,5-a]pyrazin-3-yl)phthalazin-1(2H)-one] | 45 nM | 1710 nM |
| NCc1n[nH]c(=O)c2ccc(-c3cnn4c3CN(C(=O)C35CC(C3)C5)CC4)cc12 [Example 4-89, 4-(aminomethyl)-6-(5-(bicyclo[1.1.1]pentane-1-carbonyl)-4,5,6,7-tetrahydropyrazolo[1,5-a]pyrazin-3-yl)phthalazin-1(2H)-one] | 64 nM | 1220 nM |
| NCc1n[nH]c(=O)c2ccc(-c3cnn4c3CN(C(=O)c3ccccc3)CC4)cc12 [Example 4-90, 4-(aminomethyl)-6-(5-benzoyl-4,5,6,7-tetrahydropyrazolo[1,5-a]pyrazin-3-yl)phthalazin-1(2H)-one] | 82 nM | 2730 nM |

| Structure (SMILES) | IC50 [1] | IC50 [2] |
| --- | --- | --- |
| Cn1ncc(-c2ccc3c(=O)[nH]nc(CN)c3c2)c1-c1cccc(F)c1 [Example 4-91, 4-(aminomethyl)-6-(5-(3-fluorophenyl)-1-methyl-1H-pyrazol-4-yl)phthalazin-1(2H)-one] | 16 nM | 249 nM |
| Cn1ncc(-c2ccc3c(=O)[nH]nc(CN)c3c2)c1-c1cccc(Cl)c1 [Example 4-92, 4-(aminomethyl)-6-(5-(3-chlorophenyl)-1-methyl-1H-pyrazol-4-yl)phthalazin-1(2H)-one] | 3.5 nM | 137 nM |
| Cn1ncc(-c2ccc3c(=O)[nH]nc(CN)c3c2)c1-c1ccc(F)cc1 [Example 4-95, 4-(aminomethyl)-6-(5-(4-fluorophenyl)-1-methyl-1H-pyrazol-4-yl)phthalazin-1(2H)-one] | 4.9 nM | 228 nM |
| Cc1ccc(-c2c(-c3ccc4c(=O)[nH]nc(CN)c4c3)cnn2C)cc1 [Example 4-97, 4-(aminomethyl)-6-(1-methyl-5-(p-tolyl)-1H-pyrazol-4-yl)phthalazin-1(2H)-one] | 1.6 nM | 49 nM |
| Cc1ccc(-c2c(-c3ccc4c(=O)[nH]nc(CN)c4c3)cnn2C)cn1 [Example 4-99, 4-(aminomethyl)-6-(1-methyl-5-(6-methylpyridin-3-yl)-1H-pyrazol-4-yl)phthalazin-1(2H)-one] | 15 nM | 547 nM |
| NCc1n[nH]c(=O)c2ccc(-c3cncn3Cc3ccccc3)cc12 [Example 4-108, 4-(aminomethyl)-6-(1-benzyl-1H-imidazol-5-yl)phthalazin-1(2H)-one] | 900 nM | 8650 nM |
| Cc1ncc(-c2ccc3c(=O)[nH]nc(CN)c3c2)n1CC#N [Example 4-109, 2-(5-(4-(aminomethyl)-1-oxo-1,2-dihydrophthalazin-6-yl)-2-methyl-1H-imidazol-1-yl)acetonitrile] | 120 nM | 4870 nM |
| Cc1nc2cncc(-c3ccc4c(=O)[nH]nc(CN)c4c3)c2o1 [Example 4-110, 4-(aminomethyl)-6-(2-methyloxazolo[4,5-c]pyridin-7-yl)phthalazin-1(2H)-one] | 1000 nM | – |
| NCc1n[nH]c(=O)c2ccc(-c3cncc([S+]([O-])c4ccccc4)c3)cc12 (centres unmarked) [Example 4-111, 4-(aminomethyl)-6-(5-(phenylsulfinyl)pyridin-3-yl)phthalazin-1(2H)-one] | 12 nM | 472 nM |
| NCc1n[nH]c(=O)c2ccc(C3CCCC3)cc12 [Example 5-1, 4-(aminomethyl)-6-cyclopentylphthalazin-1(2H)-one] | 72000 nM | > 100000 nM |
| NCc1n[nH]c(=O)c2ccc(-n3ccnc3)cc12 [Example 6-1, 4-(aminomethyl)-6-imidazol-1-yl-2H-phthalazin-1-one] | 5800 nM | > 100000 nM |
| CCCNc1ccc2c(CN)n[nH]c(=O)c2c1 [Example 6-2] | > 100000 nM | > 100000 nM |
| NCc1n[nH]c(=O)c2cc(Nc3ccccc3)ccc12 [Example 6-3, 4-(aminomethyl)-7-anilino-2H-phthalazin-1-one] | 9400 nM | > 100000 nM |
| NCc1n[nH]c(=O)c2cc(NCc3ccccc3)ccc12 [Example 6-4, 4-(aminomethyl)-7-(benzylamino)-2H-phthalazin-1-one] | 19000 nM | – |
| NCc1n[nH]c(=O)c2ccc(N3CCOCC3)cc12 [Example 6-5, 4-(aminomethyl)-6-morpholino-2H-phthalazin-1-one] | > 100000 nM | > 100000 nM |
| NCc1n[nH]c(=O)c2ccc(-c3cncc(Oc4ccncc4)c3)cc12 [Example 7-1, 4-(aminomethyl)-6-(5-(pyridin-4-yloxy)pyridin-3-yl)phthalazin-1(2H)-one] | 490 nM | 11200 nM |
| N#Cc1ccccc1Oc1cncc(-c2ccc3c(=O)[nH]nc(CN)c3c2)c1 [Example 7-2, 2-((5-(4-(aminomethyl)-1-oxo-1,2-dihydrophthalazin-6-yl)pyridin-3-yl)oxy)benzonitrile] | 16 nM | 246 nM |
| NCc1n[nH]c(=O)c2ccc(-c3cncc(Oc4ccc(F)cc4)c3)cc12 [Example 7-3, 4-(aminomethyl)-6-(5-(4-fluorophenoxy)pyridin-3-yl)phthalazin-1(2H)-one] | 15 nM | 388 nM |
| NCc1n[nH]c(=O)c2ccc(-c3cncc(Oc4ccc(Cl)cc4)c3)cc12 [Example 7-4, 4-(aminomethyl)-6-(5-(4-chlorophenoxy)pyridin-3-yl)phthalazin-1(2H)-one] | 5.6 nM | 151 nM |

— patent US11479551B2, “MTA-cooperative PRMT5 inhibitors” (Mirati Therapeutics, Inc., priority 2019, dated 2022)
